34 compounds from patent US20230226074A1, “METHODS OF USE FOR PYRIMIDINES AS FERROPORTIN INHIBITORS” (Global Blood Therapeutics, Inc., priority 2020, published 2023) can be followed below.

This test has as its target T1, human ferroportin (Homo sapiens, UniProt Q9NP59).
T1 construct: luciferase reporter (probably NanoLuc, inferred from the Nano-Glo Luciferase Assay System read-out); expressed in transfected cells; host or cells: CHO cells, stably transfected, expression induced with doxycycline
T1 sequence (Q9NP59 1-571): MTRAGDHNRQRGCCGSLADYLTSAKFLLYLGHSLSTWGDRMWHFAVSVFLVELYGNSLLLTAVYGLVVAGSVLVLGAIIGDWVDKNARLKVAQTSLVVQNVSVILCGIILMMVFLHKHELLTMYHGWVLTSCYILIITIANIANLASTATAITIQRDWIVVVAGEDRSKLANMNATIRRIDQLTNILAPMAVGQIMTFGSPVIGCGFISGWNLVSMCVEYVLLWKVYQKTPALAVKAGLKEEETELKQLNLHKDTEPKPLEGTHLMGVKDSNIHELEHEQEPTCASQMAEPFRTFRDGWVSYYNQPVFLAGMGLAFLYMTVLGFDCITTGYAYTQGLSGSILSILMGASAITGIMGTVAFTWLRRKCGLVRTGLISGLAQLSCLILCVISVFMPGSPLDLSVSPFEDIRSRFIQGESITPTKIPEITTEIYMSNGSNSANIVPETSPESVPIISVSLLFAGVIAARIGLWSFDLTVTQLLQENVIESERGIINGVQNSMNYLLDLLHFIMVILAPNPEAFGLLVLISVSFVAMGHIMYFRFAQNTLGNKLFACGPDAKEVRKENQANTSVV
Briefly: In-vitro ferroportin internalization assay (luciferase reporter). Type of test: cell-based. To be noted: average pEC50; stably-transfected CHO cell line expressing human ferroportin tagged to a luciferase reporter; 6 h incubation with test compound. The protocol: The protocol for this assay is generally as described in WO2018/128828, incorporated herein by reference in its entirety. Functional internalization of ferroportin protein was measured using a stably-transfected CHO cell line expressing the human ferroportin tagged to a luciferase reporter. Cells were plated for 24 h in the presence of ferric ammonium citrate (FAC). Ferroportin protein expression was induced with doxycycline for 24 h. The next day, the compounds were added. Test compounds were dissolved in DMSO. Cells were incubated with the test compounds for 6 h, and subsequently luciferase activity was measured using the Nano-Glo Luciferase Assay System and Glomax (Promega, Madison, Wis.). The average pEC50 was determined for the test compounds.
In general terms: In a reporter assay the amount or activity of a reporter protein is the signal.
In turn, `c1ccc(-c2csc3nc(-c4ccccn4)nc(NC4CC4)c23)cc1` [Compound 203, N-cyclopropyl-5-phenyl-2-(pyridin-2-yl)thieno[2,3-d]pyrimidin-4-amine] yielded a negative-log EC50 (pEC50) of 5.7.

As to `Cc1sc2nc(-c3ccccn3)nc(N(C)CCN3CCCC3=O)c2c1C` [Compound 180, 1-(2-{[5,6-dimethyl-2-(pyridin-2-yl)thieno[2,3-d]pyrimidin-4-yl](methyl)amino}ethyl)pyrrolidin-2-one], the pEC50 came out at 6.1.

Regarding `O=C1CCN(c2nc(-c3ccccn3)nc3scc(-c4ccccc4)c23)CC1` [Compound 221, 1-[5-phenyl-2-(pyridin-2-yl)thieno[2,3-d]pyrimidin-4-yl]piperidin-4-one], the negative-log EC50 (pEC50) turned out to be 6.

In turn, `CN(CCCc1n[nH]c(N)c1C#N)c1nc(-c2ccccn2)nc2scc(-c3ccccc3)c12` [Compound 246, 5-amino-3-(3-{methyl[5-phenyl-2-(pyridin-2-yl)thieno[2,3-d]pyrimidin-4-yl]amino}propyl)-1H-pyrazole-4-carbonitrile] yielded a pEC50 of 6.2.

`Cc1cc(NCCC(=O)N2CCCCCC2)nc(-c2ccccn2)n1` [Compound 232, 1-(azepan-1-yl)-3-{[6-methyl-2-(pyridin-2-yl)pyrimidin-4-yl]amino}propan-1-one] registered a pEC50 of 5.5.

The compound `CCN(CCO)c1nc(-c2ccccn2)nc2scc(-c3ccccc3)c12` [Compound 193, 2-{ethyl[5-phenyl-2-(pyridin-2-yl)thieno[2,3-d]pyrimidin-4-yl]amino}ethan-1-ol] had a pEC50 of 6.4.

Take `CC1CCN(c2nc(-c3ccccn3)nc3c2CCC3)C1` (stereo not shown) [Compound 188, 2-[4-(3-methylpyrrolidin-1-yl)-5H,6H,7H-cyclopenta[d]pyrimidin-2-yl]pyridine]: the negative-log EC50 (pEC50) was 5.7.

On to `COCCN(C)c1nc(-c2ccccn2)nc2sc(C)c(C)c12` [Compound 179, N-(2-methoxyethyl)-N,5,6-trimethyl-2-(pyridin-2-yl)thieno[2,3-d]pyrimidin-4-amine], for which the pEC50 is listed as 6.9.

`O=C(CNc1nc(-c2ccccn2)nc2scc(-c3ccccc3)c12)NC1CC1` [Compound 218, N-cyclopropyl-2-{[5-phenyl-2-(pyridin-2-yl)thieno[2,3-d]pyrimidin-4-yl]amino}acetamide] returned a pEC50 of 5.5.

The compound `CCc1cc(NCCN2CCN(CC)CC2)nc(-c2ccccn2)n1` [Compound 230, 6-ethyl-N-[2-(4-ethylpiperazin-1-yl)ethyl]-2-(pyridin-2-yl)pyrimidin-4-amine] yielded a pEC50 of 5.3.

`c1ccc(-c2csc3nc(-c4ccccn4)nc(N4CCCC4)c23)cc1` [Compound 205, 2-[5-phenyl-4-(pyrrolidin-1-yl)thieno[2,3-d]pyrimidin-2-yl]pyridine] yielded a pEC50 of 5.9.

In turn, `Cc1cc(NCCc2cccnc2)nc(-c2ccccn2)n1` [Compound 231, 6-methyl-2-(pyridin-2-yl)-N-[2-(pyridin-3-yl)ethyl]pyrimidin-4-amine] displayed a pEC50 of 5.4.

With `c1ccc(-c2csc3nc(-c4ccccn4)nc(N4CCOCC4)c23)cc1` [Compound 208, 4-[5-phenyl-2-(pyridin-2-yl)thieno[2,3-d]pyrimidin-4-yl]morpholine], the negative logarithm of the EC50 (pEC50) amounted to 5.9.

With `Cc1sc2nc(-c3ccccn3)nc(N(C)CC(=O)Nc3ccccc3)c2c1C` [Compound 182, 2-{[5,6-dimethyl-2-(pyridin-2-yl)thieno[2,3-d]pyrimidin-4-yl](methyl)amino}-N-phenylacetamide], the pEC50 was determined as 7.

The compound `OCCC1CCCCCN1c1nc(-c2ccccn2)nc2c1CCC2` (stereo not shown) [Compound 189, 2-{1-[2-(pyridin-2-yl)-5H,6H,7H-cyclopenta[d]pyrimidin-4-yl]azepan-2-yl}ethan-1-ol] returned a pEC50 of 6.7.

As for `OC1CCN(c2nc(-c3ccccn3)nc3scc(-c4ccccc4)c23)CC1` [Compound 222, 1-[5-phenyl-2-(pyridin-2-yl)thieno[2,3-d]pyrimidin-4-yl]piperidin-4-ol], the pEC50 was determined as 6.

Take `COc1ccc(NC(=O)CN(C)c2nc(-c3cc4cn[nH]c4cn3)nc3c2CCC3)nc1` [Compound 334, N-(5-methoxypyridin-2-yl)-2-[methyl(2-{1H-pyrazolo[3,4-c]pyridin-5-yl}-5H,6H,7H-cyclopenta[d]pyrimidin-4-yl)amino]acetamide]: the pEC50 is reported as 7.5.

Take `Cc1cc(NCCNC(=O)Cc2ccccc2)nc(-c2ccccn2)n1` [Compound 233, N-(2-{[6-methyl-2-(pyridin-2-yl)pyrimidin-4-yl]amino}ethyl)-2-phenylacetamide]: the pEC50 came out at 5.2.

`CNC(=O)CN(C)c1nc(-c2ccccn2)nc2sc(-c3ccccc3)cc12` [Compound 239, N-methyl-2-{methyl[6-phenyl-2-(pyridin-2-yl)thieno[2,3-d]pyrimidin-4-yl]amino}acetamide] yielded a negative logarithm of the EC50 (pEC50) of 5.8.

`CCc1cc(NCCNC(=O)NC2CCCCC2)nc(-c2ccccn2)n1` [Compound 234, 1-cyclohexyl-3-(2-{[6-ethyl-2-(pyridin-2-yl)pyrimidin-4-yl]amino}ethyl)urea] showed a negative logarithm of the EC50 (pEC50) of 5.4.

Compound `COCCN(CCOC)c1nc(-c2ccccn2)nc2sc(-c3ccccc3)cc12` [Compound 210, N,N-bis(2-methoxyethyl)-6-phenyl-2-(pyridin-2-yl)thieno[2,3-d]pyrimidin-4-amine] registered a pEC50 of 6.4.

Turning to `CCc1cc(N2Cc3ccccc3N(C)CC2C)nc(-c2ccccn2)n1` (stereo not shown) [Compound 194, 4-[6-ethyl-2-(pyridin-2-yl)pyrimidin-4-yl]-1,3-dimethyl-2,3,4,5-tetrahydro-1H-1,4-benzodiazepine], the pEC50 is 6.3.

`O=C(O)CCCCCNc1nc(-c2ccccn2)nc2c1CCC2` [Compound 186, 6-{[2-(pyridin-2-yl)-5H,6H,7H-cyclopenta[d]pyrimidin-4-yl]amino}hexanoic acid] displayed a pEC50 of 5.3.

As for `OCCN1CCN(c2nc(-c3ccccn3)nc3scc(-c4ccccc4)c23)CC1` [Compound 224, 2-{4-[5-phenyl-2-(pyridin-2-yl)thieno[2,3-d]pyrimidin-4-yl]piperazin-1-yl}ethan-1-ol], the pEC50 is recorded as 5.3.

Take `COCCNc1nc(-c2ccccn2)nc2scc(-c3ccccc3)c12` [Compound 212, N-(2-methoxyethyl)-5-phenyl-2-(pyridin-2-yl)thieno[2,3-d]pyrimidin-4-amine]: the pEC50 turned out to be 5.9.

Compound `CN(C)CCOc1ccnc(-c2nc3c(c(N(C)CC(=O)NC(C)(C)C)n2)CCC3)c1` [Compound 417, N-tert-butyl-2-[(2-{4-[2-(dimethylamino)ethoxy]pyridin-2-yl}-5H,6H,7H-cyclopenta[d]pyrimidin-4-yl)(methyl)amino]acetamide] registered a negative logarithm of the EC50 (pEC50) of 7.7.

In turn, `CNC(=O)CNc1nc(-c2ccccn2)nc2scc(-c3ccccc3)c12` [Compound 217, N-methyl-2-{[5-phenyl-2-(pyridin-2-yl)thieno[2,3-d]pyrimidin-4-yl]amino}acetamide] came in with a pEC50 of 5.3.

For `CCNC(=O)CN(C)c1nc(-c2ccccn2)nc2sc(-c3ccccc3)cc12` [Compound 240, N-ethyl-2-{methyl[6-phenyl-2-(pyridin-2-yl)thieno[2,3-d]pyrimidin-4-yl]amino}acetamide], the pEC50 is listed as less than 5.0.

In turn, `CN(CCO)c1nc(-c2ccccn2)nc2sc(-c3ccccc3)cc12` [Compound 223, 2-{methyl[6-phenyl-2-(pyridin-2-yl)thieno[2,3-d]pyrimidin-4-yl]amino}ethan-1-ol] returned a pEC50 of 5.6.

As to `OCCNc1nc(-c2ccccn2)nc2scc(-c3ccccc3)c12` [Compound 225, 2-{[5-phenyl-2-(pyridin-2-yl)thieno[2,3-d]pyrimidin-4-yl]amino}ethan-1-ol], the pEC50 was determined as 5.3.

`c1ccc(-c2csc3nc(-c4ccccn4)nc(N4CCN(c5ccccc5)CC4)c23)cc1` [Compound 206, 1-phenyl-4-[5-phenyl-2-(pyridin-2-yl)thieno[2,3-d]pyrimidin-4-yl]piperazine]: the pEC50 was 5.7.

As for `c1ccc(-c2csc3nc(-c4ccccn4)nc(N4CCN(CCN5CCCC5)CC4)c23)cc1` [Compound 199, 1-[5-phenyl-2-(pyridin-2-yl)thieno[2,3-d]pyrimidin-4-yl]-4-[2-(pyrrolidin-1-yl)ethyl]piperazine], the negative logarithm of the EC50 (pEC50) worked out at 5.8.

`CC1CC(=O)NCCN1c1nc(-c2ccccn2)nc2scc(-c3ccccc3)c12` (stereo not shown) [Compound 245, 7-methyl-1-[5-phenyl-2-(pyridin-2-yl)thieno[2,3-d]pyrimidin-4-yl]-1,4-diazepan-5-one] showed a negative-log EC50 (pEC50) of 5.5.

Consider `Cc1sc2nc(-c3ccccn3)nc(N(C)CC(=O)N(C)C)c2c1C` [Compound 184, 2-{[5,6-dimethyl-2-(pyridin-2-yl)thieno[2,3-d]pyrimidin-4-yl](methyl)amino}-N,N-dimethylacetamide], for which the pEC50 is 6.9.

The term pEC50 denotes the negative decadic logarithm of the EC50, by convention in mol/L. A low value points to a large EC50.
